biological target: SARS-CoV-2 3CL protease (Severe acute respiratory syndrome coronavirus 2 (2019-nCoV) (SARS-CoV-2), UniProt P0DTD1); assay: SARS-CoV-2 Coronavirus 3C Protease FRET Assay; type: biochemical; details: FRET assay control inhibitor

SMILES	inhibition of SARS-CoV-2 3CLpro (fluorescent signal reduced)
COc1cccc2[nH]c(C(=O)N[C@@H](CC(C)C)C(=O)N[C@@H](C[C@@H]3CCNC3=O)C(=O)CO)cc12 [PF-835231, reference compound]	potent inhibitor

same assay, conditions: read-out: 3CL Protease Geometric Mean Ki

SMILES	Ki [nM]
COc1cccc2[nH]c(C(=O)N[C@@H](CC(C)C)C(=O)N[C@@H](C[C@@H]3CCNC3=O)C(=O)COC(C)=O)cc12 [Example 1, (3S)-3-({N-[(4-methoxy-1H-indol-2-yl)carbonyl]-L-leucyl}amino)-2-oxo-4-[(3S)-2-oxopyrrolidin-3-yl]butyl acetate]	19.4
COc1cccc2[nH]c(C(=O)N[C@@H](CC(C)C)C(=O)N[C@@H](C[C@@H]3CCNC3=O)C(=O)COC(=O)C(C)(C)C)cc12 [Example 2, (3S)-3-({N-[(4-methoxy-1H-indol-2-yl)carbonyl]-L-leucyl}amino)-2-oxo-4-[(3S)-2-oxopyrrolidin-3-yl]butyl pivalate]	94.1
COc1cccc2[nH]c(C(=O)N[C@@H](CC(C)C)C(=O)N[C@@H](C[C@@H]3CCNC3=O)C(=O)COC(=O)c3ccccc3)cc12 [Example 3, (3S)-3-({N-[(4-methoxy-1H-indol-2-yl)carbonyl]-L-leucyl}amino)-2-oxo-4-[(3S)-2-oxopyrrolidin-3-yl]butyl benzoate]	233
COc1cccc2[nH]c(C(=O)N[C@@H](CC(C)C)C(=O)N[C@@H](C[C@@H]3CCNC3=O)C(=O)COC(=O)c3ccc(C)cc3)cc12 [Example 4, (3S)-3-({N-[(4-methoxy-1H-indol-2-yl)carbonyl]-L-leucyl}amino)-2-oxo-4-[(3S)-2-oxopyrrolidin-3-yl]butyl 4-methylbenzoate]	17.7
COc1cccc2[nH]c(C(=O)N[C@@H](CC(C)C)C(=O)N[C@@H](C[C@@H]3CCNC3=O)C(=O)COC(=O)c3ccc(F)cc3)cc12 [Example 5, (3S)-3-({N-[(4-methoxy-1H-indol-2-yl)carbonyl]-L-leucyl}amino)-2-oxo-4-[(3S)-2-oxopyrrolidin-3-yl]butyl 4-fluorobenzoate]	16.3
COc1cccc2[nH]c(C(=O)N[C@@H](CC(C)C)C(=O)N[C@@H](C[C@@H]3CCNC3=O)C(=O)COC(=O)c3ccc(C#N)cc3)cc12 [Example 6, (3S)-3-({N-[(4-methoxy-1H-indol-2-yl)carbonyl]-L-leucyl}amino)-2-oxo-4-[(3S)-2-oxopyrrolidin-3-yl]butyl 4-cyanobenzoate]	1.9
COc1ccc(C(=O)OCC(=O)[C@H](C[C@@H]2CCNC2=O)NC(=O)[C@H](CC(C)C)NC(=O)c2cc3c(OC)cccc3[nH]2)cc1 [Example 7, (3S)-3-({N-[(4-methoxy-1H-indol-2-yl)carbonyl]-L-leucyl}amino)-2-oxo-4-[(3S)-2-oxopyrrolidin-3-yl]butyl 4-methoxybenzoate]	33.4
COc1cccc2[nH]c(C(=O)N[C@@H](CC(C)C)C(=O)N[C@@H](C[C@@H]3CCNC3=O)C(=O)COC(=O)c3ccc(Cl)cc3)cc12 [Example 8, (3S)-3-({N-[(4-methoxy-1H-indol-2-yl)carbonyl]-L-leucyl}amino)-2-oxo-4-[(3S)-2-oxopyrrolidin-3-yl]butyl 4-chlorobenzoate]	18.8
COc1cccc2[nH]c(C(=O)N[C@@H](CC(C)C)C(=O)N[C@@H](C[C@@H]3CCNC3=O)C(=O)COC(=O)c3c(Cl)cccc3Cl)cc12 [Example 9, (3S)-3-({N-[(4-methoxy-1H-indol-2-yl)carbonyl]-L-leucyl}amino)-2-oxo-4-[(3S)-2-oxopyrrolidin-3-yl]butyl 2,6-dichlorobenzoate]	0.3
COc1cccc2[nH]c(C(=O)N[C@@H](CC(C)C)C(=O)N[C@@H](C[C@@H]3CCNC3=O)C(=O)COC(=O)c3c(C)cccc3C)cc12 [Example 10, (3S)-3-({N-[(4-methoxy-1H-indol-2-yl)carbonyl]-L-leucyl}amino)-2-oxo-4-[(3S)-2-oxopyrrolidin-3-yl]butyl 2,6-dimethylbenzoate]	3.4
COc1cccc2[nH]c(C(=O)N[C@@H](CC(C)C)C(=O)N[C@@H](C[C@@H]3CCNC3=O)C(=O)COC(=O)c3c(F)cccc3F)cc12 [Example 11, (3S)-3-({N-[(4-methoxy-1H-Indol-2-yl)carbonyl]-L-leucyl}amino)-2-oxo-4-[(3S)-2-oxopyrrolidin-3-yl]butyl 2,6-difluorobenzoate]	1.3
COc1cccc(OC)c1C(=O)OCC(=O)[C@H](C[C@@H]1CCNC1=O)NC(=O)[C@H](CC(C)C)NC(=O)c1cc2c(OC)cccc2[nH]1 [Example 12, (3S)-3-({N-[(4-methoxy-1H-indol-2-yl)carbonyl]-L-leucyl}amino)-2-oxo-4-[(3S)-2-oxopyrrolidin-3-yl]butyl 2,6-dimethoxybenzoate]	15.7
COc1cccc2[nH]c(C(=O)N[C@@H](CC(C)C)C(=O)N[C@@H](C[C@@H]3CCNC3=O)C(=O)COC(=O)c3ccc(C#N)cc3F)cc12 [Example 14, (3S)-3-({N-[(4-methoxy-1H-indol-2-yl)carbonyl]-L-leucyl}amino)-2-oxo-4-[(3S)-2-oxopyrrolidin-3-yl]butyl 4-cyano-2-fluorobenzoate]	0.2
COc1cccc2[nH]c(C(=O)N[C@@H](CC(C)C)C(=O)N[C@@H](C[C@@H]3CCNC3=O)C(=O)COC(=O)c3ccccc3C#N)cc12 [Example 15, (3S)-3-({N-[(4-methoxy-1H-indol-2-yl)carbonyl]-L-leucyl}amino)-2-oxo-4-[(3S)-2-oxopyrrolidin-3-yl]butyl 2-cyanobenzoate]	0.4

Reference: patent US12485157B2, “Method of treating COVID-19” (Pfizer Inc., priority 2020, dated 2025)
